Laboratory results taken from PMC12021451 (Planta Medica, 2025).
Where a name gives a salt, the structure may show the parent alone.

Experiment: blood-to-plasma concentration ratio
Type: in vitro ADME, human
Details: range of 4 to 1000 ng/mL

Row | Compound | Effect of the compound concentration on the Rb value
1 | Cn1c(=O)c2c(ncn2C)n(C)c1=O [Caffeine] | not observed
2 | CN(C)CCCN1c2ccccc2CCc2ccccc21 [Imipramine, imipramine hydrochlorid] | not observed
3 | C/C=C1/C[C@@H](C)[C@](O)(CO)C(=O)OCC2=CC[N@@+]3([O-])CC[C@@H](OC1=O)[C@@H]23 [Retrorsine N -oxide] | no concentration dependency was observed
